According to patent US20240335505A1, “PRODUCTS AND METHODS FOR PROMOTING MYOGENESIS” (Ecole Polytechnique Federale de Lausanne (EPFL), priority 2021, published 2024):

Key:
C. elegans = assay: Muscle function and morphology in aged C. elegans; assay type: in vivo; conditions: day 15 of adulthood; verteporfin 10 uM from L4 stage; egl-44 RNAi by maternal treatment (FIG. 19A-F)
Experimental: Transgenic Caenorhabditis Elegans. C. elegans strains were cultured at 20° C. on nematode growth medium (NGM) agar plates seeded with E. coli strain OP50 unless stated otherwise. Strains used in this study were the wild-type Bristol N2 and COP2054. N2 strain was provided by the Caenorhabditis Genetics Center (University of Minnesota). For RNAi experiments, worms were exposed to egl-44 RNAi or an empty vector control plasmid using maternal treatment to ensure robust knock down of the investigated gene. Verteporfin was dissolved in DMSO, and used at a final concentration of 10 uM. Worms were exposed to verteporfin starting from L4 stage. Verteporfin or DMSO was added to agar before preparing plates. To ensure a permanent exposure to the compound, plates were changed twice a week. The COP2054 worm strain expressing human CYTOR was generated by a custom transgenic service (Knudra Transgenics, Salt Lake City, UT). Briefly, Mosi-mediated Single Copy Insertion (MosSCI) started with the construction of myo3p::CYTOR::tbb2u, where the myo3p promoter and tbb-2 3′-UTR were taken from the N2 genome, and CYTOR was synthesized with codon and intron optimization for C. elegans. […]
C. […] 45 to 60 worms per condition were manually scored for paralysis after poking. Worms that were unable to respond to any repeated stimulation were scored as dead. […]

Tead1 = target: T1, Tead1 (Mus musculus, UniProt P30051); assay: C2C12 myoblast differentiation after disruption of Tead1 function (siRNA or Verteporfin); assay type: cell-based
T1 construct: endogenous in cells; host or cells: C2C12 mouse myoblasts (ATCC CRL-1772)
T1 sequence (P30051 whole entry): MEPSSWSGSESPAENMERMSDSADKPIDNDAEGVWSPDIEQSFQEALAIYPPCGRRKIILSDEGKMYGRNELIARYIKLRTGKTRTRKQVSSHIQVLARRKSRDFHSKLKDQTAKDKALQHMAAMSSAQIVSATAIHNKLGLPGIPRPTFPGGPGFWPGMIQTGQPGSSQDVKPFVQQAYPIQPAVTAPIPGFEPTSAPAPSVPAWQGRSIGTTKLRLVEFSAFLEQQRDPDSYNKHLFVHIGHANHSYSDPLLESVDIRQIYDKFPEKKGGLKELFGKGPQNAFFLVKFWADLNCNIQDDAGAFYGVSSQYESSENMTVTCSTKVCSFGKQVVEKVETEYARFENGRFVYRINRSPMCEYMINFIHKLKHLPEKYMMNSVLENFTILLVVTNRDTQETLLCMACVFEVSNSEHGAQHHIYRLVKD
Experimental: Cell culture. The C2C12 mouse myoblast cell line was obtained from the American Type Culture Collection (CRL-1772TM). C2C12 and HEK293T cells (CRL-3216™, ATCCR) were cultured in growth medium consisting of Dulbecco's modified Eagle's medium (Gibco, 41966-029), 20% Fetal Bovine Serum (Gibco, 10270-106) and 100 U/mL penicillin and […] streptomycin (Gibco, 15140-122). Differentiation of Cytor/CYTOR overexpressing cells or Tead1 silenced cells were assessed in culture medium. Human skeletal muscle myoblasts (Lonza, Switzerland) were cultured in DMEM/F12 Glutamax (31331093, Gibco) supplemented with 20% FBS (Gibco, 10270-106) and 1% penicillin/streptomycin (15140-122, Gibco). Human skeletal muscle myoblasts from young, old and DMD donors were obtained from the Groupement Hospitalier Est (CBC BioTec, Centre de Ressources Biologique) and cultured in Ham F10 medium (11550043, Thermo Fisher) with 12% FBS (10270-106, Gibco) and 1% penicillin/streptomycin (Gibco, 15140-122). Muscle cell differentiation was achieved by substituting FBS with 2% horse serum (Gibco, 16050-122). For detachment Trypsin-EDTA 0.05% (25300-062, Gibco) was used for all cell lines. All cells were maintained at 37° C. and 5% CO2. Cell lines were continuously tested for mycoplasma contamination.
Cell transfection and transduction. Cell transfections were done using TransiT (Mirus) according to the manufacturer's protocol with a 3:1 ratio of transfection agent to DNA. 24 well plates were transfected with 150 ng DNA, 12 well plates with 300 ng DNA, and 6 well plates with 1 ug DNA. To transfect 25 nM GapmeR or siRNA in C2C12, LipofectamineR RNAiMAX (Thermo Scientific, 13778100) was used following manufacturer's instructions. […]
Immunocytochemistry. […] The myofusion index was calculated as the ratio of nuclei within myotubes to total nuclei. Myotube diameter was measured for 10 randomly chosen myotubes per image. Myotube area was calculated as the total area covered by myotubes. […]

Verteporfin
function and morphology of aged C. elegans (movement, speed, activity, paralysis, death) (C. elegans): phenocopied the beneficial effect of Cytor | myotube area (Tead1; C2C12 myoblasts (FIG. 18B)): increase myotube area | myofusion (Tead1; C2C12 myoblasts (FIG. 18C)): increase | expression of type II myosin isoforms (Tead1; C2C12 myoblasts (FIG. 18D)): induce the expression of type II
